Source: patent publication US5129937A, “Pyridyloxypyrimidine derivatives, preparation process thereof, and herbicidal compositions containing the same as active ingredients” (Mitsui Toatsu Chemicals Incorporated, priority 1989, dated 1992)

Key:
[1] = system: ALS (acetolactate synthase); assay: ALS (Acetolactate Synthase) Inhibition Test, pea enzyme; type: biochemical; conditions: enzymoreaction inhibition rate at 10 ppm (5 μg/0.5 ml)
Method: To determine the selectivity in enzyme level between crops and weeds, an ALS inhibition test was conducted using pea as a representative of broadleaf crops and barnyardgrass as a representative of gramineous weeds.
After seeds of pea and barnyardgrass were allowed to germinate at 25° C. for 8-14 days in a dark place, partially-purified suspensions (Suspensions A) of acetolactate syntase were separately obtained from seedlings in accordance with the method described in the literature, Plant Physiology, 75, 827-831. In a test tube, […], followed by the addition of 0.15 ml of a 20 mM K2 HPO4 solution and 0.25 ml of a reaction substrate medium which consisted of 40 mM of K2 HPO4, 40 mM of sodium pyruvate, 1 mM of TPP, 1 mM of MgCl2 and 20 μM of FAD so that 0.4 ml of a reaction solution (Solution B) was prepared. Added to 0.4 ml of Solution B was 0.1 ml of Suspension A. After the resultant mixture was shaken for 1 hour in a thermostat water bath controlled at 30° C., 50 μl of 6N sulfuric acid were added to terminate the reaction.
Next, the reaction-terminated liquid mixture was transferred into a thermostat water bath controlled at 60° C. and was heated for 15 minutes. Thereafter, 0.5 ml of a 0.5% creatine solution and 0.5 ml of a 5% alkaline α-naphthol solution were added, and the resultant mixture was maintained at 60° C. for 15 minutes. As a result, the test solution developed a pink-red color. After the above operation, the absorbance of the test solution at 525 nm was measured by a spectrophotometer (Absorbance 1 of Test Compound).
On the other hand, the absorbance (Absorbance 2 of Blank) of a solution obtained by subjecting a portion of Solution B, said portion being free of the test compound, to the above operation and the absorbance (Absorbance 3 of sulfuric acid terminated) of another solution obtained by subjecting another portion of Solution B, said portion containing 50 μl of 6N sulfuric acid as a test compound, were measured at the same time. […] [formula]

Corn (Zea maize) = assay: Upland Soil Application Test, crop injury; type: in vivo; conditions: 30 g ai/a; soil application before emergence, wettable powder; observed 30 days later
Method: (§1) Resin-made 1/2500-are pots were filled with the soil of an upland field. After they were fertilized, soybean, corn and cotton were seeded and 2-3 cm soil covering was applied. Seeds of redroot pigweed, morningglory (Ipomoea purpurea), common lambsquarters, barnyardgrass, green foxtail, large crabgrass, foxtail meadow and johnsongrass had been uniformly mixed with the soil. They were allowed to germinate in a green house. One day later (before emergence of weeds), a wettable powder prepared from a predetermined amount of each test compound in a similar manner to the method described in Formulation Example 1 was diluted with water and then sprayed evenly at an application rate equal to 10 l per are onto the surface of the soil by means of a pressure-operated ULV (ultra low volume) sprayer. Influence to the crops and weeds were observed 30 days later. The results are shown in Table 3, in which the degree of damages of each test plant and the degree of injury to each crop were determined by comparing the air-dried weights of the test plant and crop with those of the corresponding plant and crop in untreated pots and are shown in accordance with the following standard: […]

[2] = system: Cotton (Gossypium indicum); assay: Upland Soil Application Test, crop injury; type: in vivo; conditions: 30 g ai/a; soil application before emergence, wettable powder; observed 30 days later
Method: as §1

Soybean (Glycine max) = assay: Upland Soil Application Test, crop injury; type: in vivo; conditions: 30 g ai/a; soil application before emergence, wettable powder; observed 30 days later
Method: as §1

Rice (Oryza sativa) [3] = assay: Submerged Soil Treatment Test (Pre-Emergence Treatment), crop injury; type: in vivo; conditions: 30 g ai/a, granule, transplanted rice, observed 30 days later
Method: (§2) 1/5000-are Wagner pots were filled with soil. Seeds or tubers of barnyardgrass, bulrush and Sagittaria pygmaea were seeded or planted under submerged condition. Two pairs of rice seedlings (2-3 leaf stage), which had been reared in advance, were transplanted to each pot and were allowed to germinate in a green house. Each pair consisted of two rice seedlings. On day later (before emergence of weeds), each pot was treated with a granule which had been prepared by processing a predetermined amount of the test composition in accordance with a similar method to the method described in Formulation Example 9. The state of emergence of weeds and the state of injury of rice were observed 30 days later. In the table, the degrees of damages of the test plants and the degrees of injury of rice are shown in a similar manner to Example 2.

[4] = system: Arrowhead sp. (Sagittaria pygmaea); assay: Submerged Soil Treatment Test (Growth Stage Treatment); type: in vivo; conditions: 30 g ai/a, growth stage treatment (barnyardgrass two-leaf stage), granule, observed 30 days later
Method: as §2, with “allowed to grow in a” for “allowed to germinate in a”, “rice seedlings. When the barnyardgrass grew to the two-leaf stage, each pot” for “rice seedlings. On day later (before emergence of weeds), each pot”, “injury of the rice are” for “injury of rice are”

[5] = system: Barnyardgrass (Echinochloa crus-galli); assay: as above; type: in vivo; conditions: 30 g ai/a, growth stage treatment (barnyardgrass two-leaf stage), granule, observed 30 days later
Method: as §2, with “allowed to grow in a” for “allowed to germinate in a”, “rice seedlings. When the barnyardgrass grew to the two-leaf stage, each pot” for “rice seedlings. On day later (before emergence of weeds), each pot”, “injury of the rice are” for “injury of rice are”

[6] = system: Bulrush (Scirpus juncoides); assay: as above; type: in vivo; conditions: 30 g ai/a, growth stage treatment (barnyardgrass two-leaf stage), granule, observed 30 days later
Method: as §2, with “allowed to grow in a” for “allowed to germinate in a”, “rice seedlings. When the barnyardgrass grew to the two-leaf stage, each pot” for “rice seedlings. On day later (before emergence of weeds), each pot”, “injury of the rice are” for “injury of rice are”

Rice (Oryza sativa) [7] = assay: Submerged Soil Treatment Test (Growth Stage Treatment), crop injury; type: in vivo; conditions: 30 g ai/a, growth stage treatment (barnyardgrass two-leaf stage), granule, transplanted rice, observed 30 days later
Method: as §2, with “allowed to grow in a” for “allowed to germinate in a”, “rice seedlings. When the barnyardgrass grew to the two-leaf stage, each pot” for “rice seedlings. On day later (before emergence of weeds), each pot”, “injury of the rice are” for “injury of rice are”

CCOC(=O)c1ncccc1Oc1nc(OC)cc(OC)n1 [A, reference compound]
Inhibition rate (%) Pea [1]: 52%
Crop injury Corn (Zea maize) (Corn (Zea maize)): 5 (0-5 (Death))
Crop injury Cotton (Gossypium indicum) [2]: 5 (0-5 (Death))
Crop injury Soybean (Glycine max) (Soybean (Glycine max)): 5 (0-5 (Death))
Crop injury Rice (Oryza sativa) (Rice (Oryza sativa) [3]): 5 (0-5 (Death))
Herbicidal effects Arrowhead sp. (Sagittaria pygmaea) [4]: 4 (6-10 (Severe damages))
Herbicidal effects Barnyardgrass (Echinochloa crus-galli) [5]: 5 (0-5 (Death))
Herbicidal effects Bulrush (Scirpus juncoides) [6]: 4 (6-10 (Severe damages))
Crop injury Rice (Oryza sativa) (Rice (Oryza sativa) [7]): 5 (0-5 (Death))

COc1cc(OC)nc(Oc2ccccc2C=O)n1 [B, reference compound]
Inhibition rate (%) Pea [1]: 72%
Crop injury Corn (Zea maize) (Corn (Zea maize)): 5 (0-5 (Death))
Crop injury Cotton (Gossypium indicum) [2]: 5 (0-5 (Death))
Crop injury Soybean (Glycine max) (Soybean (Glycine max)): 5 (0-5 (Death))
Crop injury Rice (Oryza sativa) (Rice (Oryza sativa) [3]): 5 (0-5 (Death))
Herbicidal effects Arrowhead sp. (Sagittaria pygmaea) [4]: 4 (6-10 (Severe damages))
Herbicidal effects Barnyardgrass (Echinochloa crus-galli) [5]: 5 (0-5 (Death))
Herbicidal effects Bulrush (Scirpus juncoides) [6]: 5 (0-5 (Death))
Crop injury Rice (Oryza sativa) (Rice (Oryza sativa) [7]): 5 (0-5 (Death))

COc1cc(OC)nc(Oc2cccnc2C=O)n1 [Compound No. 1, 4,6-dimethoxy-2-(2-formyl-3-pyridyloxy)pyrimidine]
Inhibition rate (%) Pea [1]: 3%
Crop injury Corn (Zea maize) (Corn (Zea maize)): 0 (91-100 (No damages))
Crop injury Cotton (Gossypium indicum) [2]: 0 (91-100 (No damages))
Crop injury Soybean (Glycine max) (Soybean (Glycine max)): 0 (91-100 (No damages))
Crop injury Rice (Oryza sativa) (Rice (Oryza sativa) [3]): 1 (71-90 (Slight damages))
Herbicidal effects Arrowhead sp. (Sagittaria pygmaea) [4]: 4 (6-10 (Severe damages))
Herbicidal effects Barnyardgrass (Echinochloa crus-galli) [5]: 5 (0-5 (Death))
Herbicidal effects Bulrush (Scirpus juncoides) [6]: 5 (0-5 (Death))
Crop injury Rice (Oryza sativa) (Rice (Oryza sativa) [7]): 1 (71-90 (Slight damages))

COc1cc(OC)nc(Oc2cccnc2C(OC)OC)n1 [Compound No. 2, 3-(4.6-dimethoxy-2-pyrimidinyloxy)-2-pyridinecarboxaldehyde dimethylacetal]
Inhibition rate (%) Pea [1]: 0%
Crop injury Corn (Zea maize) (Corn (Zea maize)): 0 (91-100 (No damages))
Crop injury Cotton (Gossypium indicum) [2]: 0 (91-100 (No damages))
Crop injury Soybean (Glycine max) (Soybean (Glycine max)): 0 (91-100 (No damages))
Crop injury Rice (Oryza sativa) (Rice (Oryza sativa) [3]): 0 (91-100 (No damages))
Herbicidal effects Arrowhead sp. (Sagittaria pygmaea) [4]: 4 (6-10 (Severe damages))
Herbicidal effects Barnyardgrass (Echinochloa crus-galli) [5]: 4 (6-10 (Severe damages))
Herbicidal effects Bulrush (Scirpus juncoides) [6]: 4 (6-10 (Severe damages))
Crop injury Rice (Oryza sativa) (Rice (Oryza sativa) [7]): 0 (91-100 (No damages))

CCOC(OCC)c1ncccc1Oc1nc(OC)cc(OC)n1 [Compound No. 3, 3-(4,6-dimethoxy-2-pyrimidinyloxy)-2-pyridinecarboxaldehyde diethylacetal]
Inhibition rate (%) Pea [1]: 0%
Crop injury Corn (Zea maize) (Corn (Zea maize)): 0 (91-100 (No damages))
Crop injury Cotton (Gossypium indicum) [2]: 0 (91-100 (No damages))
Crop injury Soybean (Glycine max) (Soybean (Glycine max)): 0 (91-100 (No damages))
Crop injury Rice (Oryza sativa) (Rice (Oryza sativa) [3]): 0 (91-100 (No damages))
Herbicidal effects Arrowhead sp. (Sagittaria pygmaea) [4]: 5 (0-5 (Death))
Herbicidal effects Barnyardgrass (Echinochloa crus-galli) [5]: 5 (0-5 (Death))
Herbicidal effects Bulrush (Scirpus juncoides) [6]: 5 (0-5 (Death))
Crop injury Rice (Oryza sativa) (Rice (Oryza sativa) [7]): 0 (91-100 (No damages))

CCCCOC(OCCCC)c1ncccc1Oc1nc(OC)cc(OC)n1 [Compound No. 4]
Inhibition rate (%) Pea [1]: 0%
Crop injury Corn (Zea maize) (Corn (Zea maize)): 0 (91-100 (No damages))
Crop injury Cotton (Gossypium indicum) [2]: 0 (91-100 (No damages))
Crop injury Soybean (Glycine max) (Soybean (Glycine max)): 0 (91-100 (No damages))
Crop injury Rice (Oryza sativa) (Rice (Oryza sativa) [3]): 0 (91-100 (No damages))
Herbicidal effects Arrowhead sp. (Sagittaria pygmaea) [4]: 4 (6-10 (Severe damages))
Herbicidal effects Barnyardgrass (Echinochloa crus-galli) [5]: 5 (0-5 (Death))
Herbicidal effects Bulrush (Scirpus juncoides) [6]: 4 (6-10 (Severe damages))
Crop injury Rice (Oryza sativa) (Rice (Oryza sativa) [7]): 0 (91-100 (No damages))

COc1cc(OC)nc(Oc2cccnc2C(OC)OC(C)C)n1 (stereo not drawn) [Compound No. 5, 3-(4.6-dimethoxy-2-pyrimidinyloxy)-2-pyridinecarboxaldehyde isopropylmethylacetal]
Inhibition rate (%) Pea [1]: 0%
Crop injury Corn (Zea maize) (Corn (Zea maize)): 0 (91-100 (No damages))
Crop injury Cotton (Gossypium indicum) [2]: 0 (91-100 (No damages))
Crop injury Soybean (Glycine max) (Soybean (Glycine max)): 0 (91-100 (No damages))
Crop injury Rice (Oryza sativa) (Rice (Oryza sativa) [3]): 0 (91-100 (No damages))
Herbicidal effects Arrowhead sp. (Sagittaria pygmaea) [4]: 5 (0-5 (Death))
Herbicidal effects Barnyardgrass (Echinochloa crus-galli) [5]: 5 (0-5 (Death))
Herbicidal effects Bulrush (Scirpus juncoides) [6]: 5 (0-5 (Death))
Crop injury Rice (Oryza sativa) (Rice (Oryza sativa) [7]): 0 (91-100 (No damages))

COc1cc(OC)nc(Oc2cccnc2C2OCCO2)n1 [Compound No. 6]
Inhibition rate (%) Pea [1]: 0%
Crop injury Corn (Zea maize) (Corn (Zea maize)): 0 (91-100 (No damages))
Crop injury Cotton (Gossypium indicum) [2]: 0 (91-100 (No damages))
Crop injury Soybean (Glycine max) (Soybean (Glycine max)): 0 (91-100 (No damages))
Crop injury Rice (Oryza sativa) (Rice (Oryza sativa) [3]): 0 (91-100 (No damages))
Herbicidal effects Arrowhead sp. (Sagittaria pygmaea) [4]: 3 (11-40 (Medium damages))
Herbicidal effects Barnyardgrass (Echinochloa crus-galli) [5]: 5 (0-5 (Death))
Herbicidal effects Bulrush (Scirpus juncoides) [6]: 5 (0-5 (Death))
Crop injury Rice (Oryza sativa) (Rice (Oryza sativa) [7]): 0 (91-100 (No damages))

COc1cc(OC)nc(Oc2cccnc2C2OCC(C)O2)n1 (stereo not drawn) [Compound No. 7]
Inhibition rate (%) Pea [1]: 0%
Crop injury Corn (Zea maize) (Corn (Zea maize)): 0 (91-100 (No damages))
Crop injury Cotton (Gossypium indicum) [2]: 0 (91-100 (No damages))
Crop injury Soybean (Glycine max) (Soybean (Glycine max)): 0 (91-100 (No damages))
Crop injury Rice (Oryza sativa) (Rice (Oryza sativa) [3]): 0 (91-100 (No damages))
Herbicidal effects Arrowhead sp. (Sagittaria pygmaea) [4]: 4 (6-10 (Severe damages))
Herbicidal effects Barnyardgrass (Echinochloa crus-galli) [5]: 5 (0-5 (Death))
Herbicidal effects Bulrush (Scirpus juncoides) [6]: 4 (6-10 (Severe damages))
Crop injury Rice (Oryza sativa) (Rice (Oryza sativa) [7]): 0 (91-100 (No damages))
